Results reported in patent US9255101B2 (BIOPROJECT, priority 2012, dated 2016).
Structures can show the parent of a compound that is named as a salt.

Legend:
human H4 receptor [1] = biological target: T1, human H4 receptor (Homo sapiens, UniProt Q9H3N8); test: biochemical
human H4 receptor [2] = biological target: T1, human H4 receptor; test: biochemical; remark: listed apart in the source
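Throughout, for IC50: membranes from SH-SY5Y cells with stable human H4 receptor expression, incubated with GDP 10 µM, radioactivity retained on filters counted by liquid scintillation.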
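Throughout, for Ki: radioligand displacement of a [3H]-labelled ligand from membranes of CHO cells stably expressing human H4 receptor, bound radioactivity counted on filters by liquid scintillation.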

T1 sequence (Q9H3N8 whole entry): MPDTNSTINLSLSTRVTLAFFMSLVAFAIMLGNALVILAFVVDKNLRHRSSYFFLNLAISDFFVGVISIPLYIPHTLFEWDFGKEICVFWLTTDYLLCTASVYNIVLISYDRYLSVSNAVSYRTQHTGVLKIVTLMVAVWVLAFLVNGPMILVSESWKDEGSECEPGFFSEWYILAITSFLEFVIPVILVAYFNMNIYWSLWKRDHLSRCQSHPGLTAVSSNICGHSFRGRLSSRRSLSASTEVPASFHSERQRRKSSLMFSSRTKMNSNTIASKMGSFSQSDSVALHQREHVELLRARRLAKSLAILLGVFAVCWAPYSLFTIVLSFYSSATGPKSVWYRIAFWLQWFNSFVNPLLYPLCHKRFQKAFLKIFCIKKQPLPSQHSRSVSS

| SMILES | melting point [°C] | Ki (human H4 receptor [1]) [nM] | IC50 (human H4 receptor [2]) [nM] |
| --- | --- | --- | --- |
| CN1CCC(OC2c3cccc(Br)c3CCn3cc(-c4ccccc4)nc32)CC1 (stereo not drawn) [Example 231, 8-Bromo-4-(1-methyl-piperidin-4-yloxy)-2-phenyl-9,10-dihydro-4H-3,10a-diaza-benzo[f]azulene] | 83 | < 300 |  |
| CCCNC(=O)c1nc2n(c1C)CCc1ccccc1C2OC1CCN(C)CC1 (stereo not drawn) [Example 205, 1-methyl-4-(1-methylpiperidin-4-yloxy)-9,10-dihydro-4H-3,10a-diaza-benzo[f]azulene-2-carboxylic acid propylamide] | 60 | < 1000 |  |
| Cc1c(C(O)c2ccccc2)nc2n1CCc1ccccc1C2OC1CCN(C)CC1.O=CO (stereo not drawn) [Example 201, [1-methyl-4-(1-methylpiperidin-4-yloxy)-9,10-dihydro-4H-3,10a-diaza-benzo[f]azulen-2-yl]phenylmethanol, formic acid salt] | 85 | < 1000 |  |
| CN1CCC(OC2c3cccc(Cc4ccccc4)c3CCn3cc(-c4ccccc4)nc32)CC1 (stereo not drawn) [Example 233, 8-benzyl-4-(1-methylpiperidin-4-yloxy)-2-phenyl-9,10-dihydro-4H-3,10a-diaza-benzo[f]azulene] | 66 | < 1000 |  |
| CN1CCC(OC2c3ccccc3CCn3cc(I)nc32)CC1 (stereo not drawn) [Example 2, 2-iodo-4-(1-methylpiperidin-4-yloxy)-9,10-dihydro-4H-3,10a-diaza-benzo[f]azulene] | 126 | < 300 |  |
| Cc1cccc2c1CCn1cc(-c3ccccc3)nc1C2OC1CCN(C)CC1 (stereo not drawn) [Example 236, 8-methyl-4-(1-methylpiperidin-4-yloxy)-2-phenyl-9,10-dihydro-4H-3,10a-diaza-benzo[f]azulene] | 71 | < 300 |  |
| CN1CCC(OC2c3ccccc3CCn3c2nc(I)c3C(N)=O)CC1 (stereo not drawn) [Example 253, 2-iodo-4-(1-methylpiperidin-4-yloxy)-9,10-dihydro-4H-3,10a-diaza-benzo[f]azulene-1-carboxylic acid amide] | 85 | < 1000 |  |
| C=CCCc1cccc2c1CCn1cc(-c3ccccc3)nc1C2OC1CCN(C)CC1.O=C(O)C(=O)O (stereo not drawn) [Example 237, 8-but-3-enyl-4-(1-methylpiperidin-4-yloxy)-2-phenyl-9,10-dihydro-4H-3,10a-diaza-benzo[f]azulene, oxalate] | 107 | < 1000 |  |
| CN1CCC(OC2c3ccccc3CCn3cc(-c4ccc(NC(=O)C(C)(C)C)cc4)nc32)CC1 (stereo not drawn) [Example 58, 2,2-dimethyl-N-{4-[4-(1-methylpiperidin-4-yloxy)-9,10-dihydro-4H-3,10a-diaza-benzo[f]azulen-2-yl]-phenyl}-propionamide] | 120 | < 300 |  |
| CN1CCC(OC2c3ccccc3CCn3c2nc(-c2ccccc2)c3C=O)CC1 (stereo not drawn) [Example 262, 4-(1-methylpiperidin-4-yloxy)-2-phenyl-9,10-dihydro-4H-3,10a-diaza-benzo[f]azulene-1-carbaldehyde] | 70 | < 300 |  |
| CN1CCC(OC2c3cccc(-c4ccc(F)cc4)c3CCn3cc(-c4ccccc4)nc32)CC1 (stereo not drawn) [Example 240, 8-(4-fluorophenyl)-4-(1-methylpiperidin-4-yloxy)-2-phenyl-9,10-dihydro-4H-3,10a-diaza-benzo[f]azulene] | 95 | < 300 |  |
| Cc1c(C(=O)N(C)Cc2ccccc2)nc2n1CCc1ccccc1C2OC1CCN(C)CC1 (stereo not drawn) [Example 203, 1-methyl-4-(1-methylpiperidin-4-yloxy)-9,10-dihydro-4H-3,10a-diaza-benzo[f]azulene-2-carboxylic acid benzylmethylamide] | 61 | < 1000 |  |
| CNc1cccc2c1CCn1cc(-c3ccccc3)nc1C2OC1CCN(C)CC1 (stereo not drawn) [Example 244, methyl-[4-(1-methylpiperidin-4-yloxy)-2-phenyl-9,10-dihydro-4H-3,10a-diaza-benzo[f]azulen-8-yl]-amine] | 189 | < 1000 |  |
| CN1CCC(OC2c3ccccc3CCn3c2nc(-c2ccccc2)c3-c2ccccc2)CC1 (stereo not drawn) [Example 252, 4-(1-methylpiperidin-4-yloxy)-1,2-diphenyl-9,10-dihydro-4H-3,10a-diaza-benzo[f]azulene] | 90 | < 300 |  |
| Cc1c(I)nc2n1CCc1ccccc1C2OC1CCN(C)CC1 (stereo not drawn) [Example 133, 2-iodo-1-methyl-4-(1-methylpiperidin-4-yloxy)-9,10-dihydro-4H-3,10a-diaza-benzo[f]azulene] | 59 | < 300 |  |
| Cc1c(-c2ccc(C3=CCN(C(=O)OC(C)(C)C)CC3)cc2)nc2n1CCc1ccccc1C2OC1CCN(C)CC1 (stereo not drawn) [Example 168, 4-{4-[1-methyl-4-(1-methyl-piperidin-4-yloxy)-9,10-dihydro-4H-3,10a-diaza-benzo[f]azulen-2-yl]-phenyl}-3,6-dihydro-2H-pyridine-1-carboxylic acid tert-butyl ester] | 171 | < 30 |  |

| SMILES | melting point [°C] | Ki (human H4 receptor [1]) [nM] | IC50 (human H4 receptor [2]) [nM] |
| --- | --- | --- | --- |
| CCCNC(=O)Nc1ccc(-c2cn3c(n2)C(OC2CCN(C)CC2)c2ccccc2CC3)cc1 (stereo not drawn) [Example 60, 1-{4-[4-(1-methylpiperidin-4-yloxy)-9,10-dihydro-4H-3,10a-diaza-benzo[f]azulen-2-yl]-phenyl}-3-propyl-urea] | 130 | < 300 |  |
| Cc1ccccc1-c1cccc2c1CCn1cc(-c3ccccc3)nc1C2OC1CCN(C)CC1 (stereo not drawn) [Example 239, 4-(1-methylpiperidin-4-yloxy)-2-phenyl-8-o-tolyl-9,10-dihydro-4H-3,10a-diaza-benzo[f]azulene] | 94 | < 1000 |  |
| CCCc1c(-c2ccccc2)nc2n1CCc1ccccc1C2OC1CCN(C)CC1 (stereo not drawn) [Example 238, 4-(1-methylpiperidin-4-yloxy)-2-phenyl-1-propyl-9,10-dihydro-4H-3,10a-diaza-benzo[f]azulene] | 144 | < 300 |  |
| Cc1c(C(=O)c2ccccc2)nc2n1CCc1ccccc1C2OC1CCN(C)CC1.O=CO (stereo not drawn) [Example 202, [1-methyl-4-(1-methylpiperidin-4-yloxy)-9,10-dihydro-4H-3,10a-diaza-benzo[f]azulen-2-yl]phenylmethanone, formic acid salt] | 71 | < 1000 |  |
| C=C(C)Cc1nc2n(c1CC(=C)C)CCc1ccccc1C2OC1CCN(C)CC1.O=C(O)C(=O)O.O=C(O)C(=O)O (stereo not drawn) [Example 267, 1,2-bis-(2-methylallyl)-4-(1-methylpiperidin-4-yloxy)-9,10-dihydro-4H-3,10a-diaza-benzo[f]azulene dioxalate] | 70 | < 300 |  |
| CN1CCC(OC2c3cccc(OCc4ccccc4)c3CCn3cc(-c4ccccc4)nc32)CC1 (stereo not drawn) [Example 248, 8-benzyloxy-4-(1-methylpiperidin-4-yloxy)-2-phenyl-9,10-dihydro-4H-3,10a-diaza-benzo[f]azulene] | 68 | < 1000 |  |
| CN1CCC(OC2c3ccccc3CCn3c2nc(-c2ccccc2)c3I)CC1 (stereo not drawn) [Example 247, 1-iodo-4-(1-methylpiperidin-4-yloxy)-2-phenyl-9,10-dihydro-4H-3,10a-diaza-benzo[f]azulene] | 153 | < 30 |  |
| COc1ccccc1-c1nc2n(c1C)CCc1ccccc1C2OC1CCN(C)CC1 (stereo not drawn) [Example 149, 2-(2-methoxyphenyl)-1-methyl-4-(1-methylpiperidin-4-yloxy)-9,10-dihydro-4H-3,10a-diaza-benzo[f]azulene] | 139 | < 300 |  |
| Cc1c(-c2ccsc2)nc2n1CCc1ccccc1C2OC1CCN(C)CC1 (stereo not drawn) [Example 148, 1-methyl-4-(1-methylpiperidin-4-yloxy)-2-thiophen-3-yl-9,10-dihydro-4H-3,10a-diaza-benzo[f]azulene] | 74 | < 30 |  |
| Cc1c(C(=O)NCc2ccccc2)nc2n1CCc1ccccc1C2OC1CCN(C)CC1 (stereo not drawn) [Example 222, 1-methyl-4-(1-methylpiperidin-4-yloxy)-9,10-dihydro-4H-3,10a-diaza-benzo[f]azulene-2-carboxylic acid benzylamide] | 161 |  |  |
| CN1CCC(OC2c3ccc(Br)cc3CCn3cc(-c4ccccc4)nc32)CC1 (stereo not drawn) [Example 261, 7-bromo-4-(1-methylpiperidin-4-yloxy)-2-phenyl-9,10-dihydro-4H-3,10a-diaza-benzo[f]azulene] | 92 | < 300 |  |
| COc1cccc2c1CCn1cc(-c3ccccc3)nc1C2OC1CCN(C)CC1 (stereo not drawn) [Example 245, 8-methoxy-4-(1-methylpiperidin-4-yloxy)-2-phenyl-9,10-dihydro-4H-3,10a-diaza-benzo[f]azulene] | 73 | < 1000 |  |
| CN1CCC(OC2c3ccccc3CCn3cc(C4=CCN(C(=O)OC(C)(C)C)CC4)nc32)CC1 (stereo not drawn) [Example 74, 4-[4-(1-methylpiperidin-4-yloxy)-9,10-dihydro-4H-3,10a-diaza-benzo[f]azulen-2-yl]-3,6-dihydro-2H-pyridine-1-carboxylic acid tert-butyl ester oxalate] |  | < 300 | < 300 |
| Cc1c(-c2ccc(SCc3ccco3)cc2)nc2n1CCc1ccccc1C2OC1CCN(C)CC1 (stereo not drawn) [Example 167, 2-[4-(furan-2-ylmethylsulfanyl)-phenyl]-1-methyl-4-(1-methylpiperidin-4-yloxy)-9,10-dihydro-4H-3,10a-diaza-benzo[f]azulene oxalate] |  | < 30 | < 30 |
| CN1CCC(OC2c3ccccc3CCn3cc(-c4ccc(C(F)(F)F)cc4)nc32)CC1 (stereo not drawn) [Example 25, 4-(1-methylpiperidin-4-yloxy)-2-(4-trifluoromethylphenyl)-9,10-dihydro-4H-3,10a-diaza-benzo[f]azulene] |  | < 30 | < 30 |
| CCc1c(-c2ccccc2)nc2n1CCc1ccccc1C2OC1CCN(C)CC1 (stereo not drawn) [Example 120, 1-ethyl-4-(1-methylpiperidin-4-yloxy)-2-phenyl-9,10-dihydro-4H-3,10a-diaza-benzo[f]azulene oxalate] |  | < 30 | < 30 |
